# Where two headings read alike, the source gives them in different places.
# Tests used:
# LasR-LBD = biological target: T1, LasR-LBD (Pseudomonas aeruginosa, UniProt P25084); assay: Expression of LasR-LBD in presence of probe; covalent labeling by LC-MS and soluble protein by SDS-PAGE; type: binding, P. aeruginosa; settings: for covalent modification of purified LasR-LBD (LC-MS): 10-100 micro-M compound in bacterial growth culture; for soluble LasR-LBD obtained on expression in presence of compound: SDS-PAGE of purified protein
# T1 construct: His6; made in house; host or cells: E. coli BL21 (pETM-11)
# Experimental: All MS analyses were performed on a LCQ Fleet mass spectrometer (Thermo Scientific) with an ESI source. Spectra were collected in positive ion mode and analyzed by Xcalibur and Promass software (Thermo Scientific). For LC/MS analyses a Surveyor Plus HPLC System (Thermo Scientific) was used, equipped with a Luna C18, 5 μm (150×4.6 mm) column at a flow rate of 0.5 mL/min, using a mobile phase linear gradient of 0.1% aqueous formic acid (solvent A) and CH3CN containing 0.1% formic acid (solvent B).
# The expression of full length LasR was previously found to yield largely insoluble protein in the presence or absence of the native ligand, 3-oxo-C12-HSL (Bottomley, M. J., Muraglia, E., Bazzo, R. & Carfi, A. Molecular insights into quorum sensing in the human pathogen Pseudomonas aeruginosa from the structure of the virulence regulator LasR bound to its autoinducer. J Biol Chem 282, 13592-600 (2007)). Therefore, expression was performed using a strain transformed with a pETM-11 vector encoding for a shortened, His6-tagged LasR construct, LasR-LBD (ligand-binding domain), spanning residues Met-1 to Lys-173. The plasmid was transferred into E. coli BL21 and cells were incubated in 1 mL rich LB medium for 1 hour. The cells were then grown on LB agar plates containing kanamycin (50 micro-g/mL). For expression, a single colony was selected and transferred into 5 mL of rich LB medium containing kanamycin and grown overnight. Proteins were expressed in the presence of either native 3-oxo-C12-HSL or different inhibitors and purified by Ni^2+ affinity chromatography as previously described (Bottomley, M. J., Muraglia, E., Bazzo, R. & Carfi, A. Molecular insights into quorum sensing in the human pathogen Pseudomonas aeruginosa from the structure of the virulence regulator LasR bound to its autoinducer. J Biol Chem 282, 13592-600 (2007), yielding ˜70 mg of purified protein per liter of LB medium using large scale expression conditions, and ˜0.5-1 mg of purified protein from 50 mL of LB medium using small scale expression conditions. The purification process was monitored by SDS-PAGE electrophoresis and the molecular mass of the purified proteins was confirmed by mass spectrometry.
# 1 mL of the overnight grown cell culture was used to inoculate 1 liter of rich LB medium containing kanamycin (50 micro-g/mL) and 10-100 micro-M of 3-oxo-C12-HSL or inhibitors 7a-c and 11a-g. Cells were grown to an optical density (OD600 nm) of 0.4, after which expression was induced at 21° C. by addition of 0.2 mM isopropyl 1-thio-beta-D-galactopyranoside (IPTG) and an additional amount of ligand/inhibitor was added to the media. After reaching an OD600 nm of 1.4 (approx. 6-8 hours), cells were centrifuged at 6000 rpm, washed and resuspended in lysis buffer containing 5 mM imidazole, 300 mM NaCl, 50 mM Tris-HCl, pH 8. Cells were ultrasonicated for 2 minutes at 70% amplitude for two cycles. The lysate was centrifuged at 12,000 rpm for 30 minutes, and the supernatants were purified by Ni^2+ affinity chromatography.
# Small scale expression was performed in 50 mL volume following the previous procedure. Cells were harvested by chemical lysis, adding 1 mL of lysis buffer (5 mM imidazole, 300 mM NaCl, 0.2% (v/v) Triton X-100, 0.75 μg/mL DNase-I, 0.05 mM MgCl2, 0.01 mM CaCl2, 50 mM Tris-HCl, pH 8, and 0.01% (v/v) protein inhibitor cocktail), and incubated for 60 minutes at 37° C. Cell debris was removed by centrifugation at 4,000 rpm for 15 minutes. […]
# [1] = tested on: wild type P. aeruginosa PAO1 strain; assay: Biofilm formation of wild type PAO1 in microtiter plates; type: cell-based; settings: 50 micro-M, 24 h, versus DMSO
# Experimental: (§1) To assess whether the reactive probes inhibit QS-regulated activities, such as biofilm formation and pyocyanin production, the wild type P. aeruginosa PAO1 strain was incubated in the presence of itc-12 and 4-Br-PHL (both at 50 micro-M), or DMSO, as a control, in microtiter plates that allow analysis of 24 h biofilm formation and in vials allowing measurement of 36 h pyocyanin production. […] However, even a partial reduction in biofilm formation may be sufficient to render the bacteria vulnerable to host responses, as not only is total biofilm mass affected upon disruption of QS, but also is its architecture, its degree of porosity and its extent of flexibility and robustness.
# LasR [2] = biological target: T2, LasR (Pseudomonas aeruginosa, UniProt P25084); assay: E. coli DH5-alpha LasR agonist/antagonist assay (PlasI-lacZ, beta-galactosidase); type: cell-based, P. aeruginosa
# T2 construct: expressed in transfected cells; host or cells: E. coli DH5-alpha (pJN105L + pSC11 PlasI-lacZ)
# Experimental: E. coli DH5-Alpha LasR Agonist/Antagonist Assay.
# E. coli DH5-alpha harboring the LasR expression vector. pJN105L, and a plasmid-borne PlasI-lacZ fusion (pSC11) (Lee, J. H., Lequette, Y. & Greenberg, E. P. Activity of purified QscR, a Pseudomonas aeruginosa orphan quorum-sensing transcription factor. Mol Microbiol 59, 602-9 (2006)) was used to quantify quorum sensing inhibition by measuring expression levels of beta-galactosidase. Bacteria were incubated overnight in LB medium containing 100 micro-g/mL of ampicillin and 15 micro-g/mL of gentamicin. The culture was diluted at a 1:10 ratio by volume with fresh medium and further incubated until an OD600 nm of 0.3 was reached. A 96 well microtiter plate (Greiner) was prepared with the desired concentrations of inhibitors and bacteria were added to reach a final absorbance density (OD600 nm) of 0.3. Expression was induced at the edition of L-(+)-arabinose (4 mg/mL) and the plates were incubated at 37° C. for a period of 4 hours (OD600 nm of 0.45-0.5). The cultures were then assayed for beta-galactosidase activity according to the Miller assay method^46: […] were transferred to clear 96-well microtiter plates and the OD600 was recorded. […] was then added to a polypropylene-based 96-well microtiter plate containing […] of 0.1% SDS (w/v). Wells were thoroughly rinsed by pipetation, after which the chloroform was allowed to settle. […] upper layer was transferred to a fresh 96-well microtiter plate and […]-beta-D-galactopyranoside (ONPG, 4 mg/mL in phosphate buffer of pH 7) were added. The plates were incubated 35 minutes at 28° C. The reaction was terminated with the addition of […] sodium carbonate solution, and absorption at two wavelengths (550 nm, 429 nm) was recorded. Miller units were calculated using standard methods (Miller, J. H. Experiments in Molecular Genetics. 352-355 (Cold Spring Harbor Laboratories, 1972)). For antagonist experiments, a final concentration of 50 nM 3-oxo-C12-HSL was used.
# [3] = tested on: LasI reporter coupled to the luxCDABE luminescence system; assay: P. aeruginosa wild-type strain (PA01) QS inhibition assay (luminescence reporter); type: cell-based; settings: for inhibition of lasI expression in PAO1-luxCDABE (virulence): FIG. 9; for IC50: Pseudomonas aeruginosa, PAO1, read-out: IC50, inhibition of luminescence in wild type PAO1 reporter strain
# Experimental: P. aeruginosa Wild-Type Strain (PA01) QS Inhibition Assay.
# The P. aeruginosa PA01 wild type strain harboring plasmid pKD201 containing a LasI reporter coupled to the luxCDABE luminescence system (Duan, K. & Surette, M. G. Environmental regulation of Pseudomonas aeruginosa PAO1 Las and Rhl quorum-sensing systems. J Bacteriol 189, 4827-36 (2007)), was incubated overnight in LB medium containing 300 micro-g/ml of trimethoprim. A 96-well black microtiter plate (Greiner) was prepared with the desired concentrations of inhibitors (up to 1 mM, above which growth inhibition was observed), and bacteria were added to reach a final absorbance density (OD600 nm) of 0.015. The plate was then incubated for a period of 12 hours at 37° C. During this time, luminescence measurements were performed at 10 minute intervals. The relative luminescence was then plotted against the added inhibitor concentration; IC50 values were calculated using Grafit 6.0 (Erithacus Software).
# [4] = tested on: wild type P. aeruginosa PAO1 strain; assay: Pyocyanin production of wild type PAO1; type: cell-based; settings: 50 micro-M, 36 h, versus DMSO
# Experimental: as §1
# [5] = tested on: LasI reporter coupled to the luxCDABE luminescence system; assay: P. aeruginosa PAO-JP2 QS agonist/antagonist assay (luminescence reporter); type: cell-based; settings: for IC50: Pseudomonas aeruginosa, read-out: IC50, 3-oxo-C12-HSL antagonist activity in PAO-JP2
# Experimental: P. aeruginosa PAO-JP2 QS Agonist/Antagonist Assay.
# PAO-JP2, a lasI/rhlI-deleted strain harboring plasmid pKD201 containing a LasI reporter coupled to the luxCDABE luminescence system (see above), was incubated overnight in LB medium containing 300 micro-g/ml of trimethoprim. A 96-well black microtiter plate (Greiner) was prepared as described for the PA01 inhibition assay. The relative luminescence was then plotted against the added inhibitor concentration; IC50 values were calculated using Grafit 6.0 (Erithacus Software). For antagonist experiments, a final concentration of 50 nM 3-oxo-C12-HSL was used.
# [6] = biological target: T3, LasR-LBD Cys79Ser mutation (Pseudomonas aeruginosa, UniProt P25084, C79S); assay: Expression of LasR-LBD Cys79Ser mutant in presence of probe, covalent labeling; type: binding, P. aeruginosa
# T3 construct: His6; made in house; host or cells: bacteria (E. coli BL21 as for wild-type LasR-LBD, inferred)
# LasR-LBD Cys79Ala mutant = biological target: T4, LasR-LBD Cys79Ala mutant (Pseudomonas aeruginosa, UniProt P25084, C79A); assay: Expression of LasR-LBD Cys79Ala mutant in presence of probe, covalent labeling; type: binding, P. aeruginosa
# T4 construct: His6; made in house; host or cells: bacteria (E. coli BL21 as for wild-type LasR-LBD, inferred)
# LasR [7] = biological target: T2, LasR; settings: read-out: IC50 reported by Geske et al.; E. coli-based LasR antagonist assay, literature value; cited from earlier work
# T2 sequence (P25084 whole entry): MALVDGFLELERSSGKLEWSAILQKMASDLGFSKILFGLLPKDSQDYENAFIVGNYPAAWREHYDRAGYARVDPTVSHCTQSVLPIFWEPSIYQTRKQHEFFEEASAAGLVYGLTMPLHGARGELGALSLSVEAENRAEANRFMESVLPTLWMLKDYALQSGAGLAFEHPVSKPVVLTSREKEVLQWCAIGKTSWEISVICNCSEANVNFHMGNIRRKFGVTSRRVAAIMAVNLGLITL
# T1 sequence (P25084 1-173): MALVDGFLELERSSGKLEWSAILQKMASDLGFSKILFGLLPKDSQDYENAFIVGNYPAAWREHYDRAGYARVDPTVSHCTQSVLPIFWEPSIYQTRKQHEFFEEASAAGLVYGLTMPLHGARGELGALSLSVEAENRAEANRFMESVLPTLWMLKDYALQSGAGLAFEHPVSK
# T4 sequence (P25084 1-173 C79A): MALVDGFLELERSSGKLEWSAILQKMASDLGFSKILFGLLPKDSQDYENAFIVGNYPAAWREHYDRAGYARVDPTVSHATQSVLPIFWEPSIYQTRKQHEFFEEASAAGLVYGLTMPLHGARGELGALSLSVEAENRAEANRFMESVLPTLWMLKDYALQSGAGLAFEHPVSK
# T3 sequence (P25084 1-173 C79S): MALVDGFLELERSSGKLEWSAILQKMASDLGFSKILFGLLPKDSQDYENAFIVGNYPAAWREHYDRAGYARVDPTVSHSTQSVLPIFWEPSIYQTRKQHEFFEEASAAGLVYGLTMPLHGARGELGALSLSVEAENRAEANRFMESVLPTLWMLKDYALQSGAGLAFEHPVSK
Structure (SMILES),covalent modification of purified LasR-LBD (LC-MS) (LasR-LBD),IC50 (LasR [2]),IC50 [3],IC50 [5],further results
"O=C(CCCCCCCCCN=C=S)CC(=O)NC1CCOC1=O (stereo not drawn) [itc-12, 12-isothiocyanato-3-oxo-N-(2-oxotetrahydrofuran-3-yl)dodecanamide]",covalently modified,29.8 ± 0.5 µM,113 ± 19 µM,134 ± 6 µM,"soluble LasR-LBD obtained on expression in presence of compound (LasR-LBD): larger amounts of soluble LasR-LBD; inhibition of biofilm formation [1]: significantly inhibited; inhibition of lasI expression in PAO1-luxCDABE (virulence) [3]: dose-dependent manner; inhibition of pyocyanin production [4]: significantly inhibited; agonism in PAO-JP2-based reporter ([5]; markedly reduced levels compared to natural autoinducer): partial agonism patterns; covalent modification of LasR-LBD Cys79Ser [6]: no covalent modification being observed; soluble protein, LasR-LBD Cys79Ser [6]: yielded expression of soluble protein; soluble protein, LasR-LBD Cys79Ala mutant (LasR-LBD Cys79Ala mutant): Soluble protein was, however, obtained; covalent modification of LasR-LBD Cys79Ala mutant (LasR-LBD Cys79Ala mutant; data not shown): no covalent modification was detected"
"O=C(CCCCCCCCN=C=S)CC(=O)NC1CCOC1=O (stereo not drawn) [itc-11, 11-isothiocyanato-3-oxo-N-(2-oxotetrahydrofuran-3-yl)undecanamide]",covalently modified,39.1 ± 9.4 µM,~300 µM,,
"[N-]=[N+]=NCCCCCCCCCC(=O)CC(=O)NC1CCOC1=O (stereo not drawn) [azido-C12, 12-azido-3-oxo-N-(2-oxotetrahydrofuran-3-yl)dodecanamide]",no covalently labeled product,,,,inhibitory activity compared with itc-12 ([5]; data not shown): significantly lower than that of itc-12
"O=C(CCCCCCCCCCN=C=S)CC(=O)NC1CCOC1=O (stereo not drawn) [itc-13, 13-isothiocyanato-3-oxo-N-(2-oxotetrahydrofuran-3-yl)tridecanamide]",,19.2 ± 3.9 µM,45.2 ± 0.7 µM,30 ± 7 µM,
O=C(CCCCCCCCNC(=O)CCl)CC(=O)N[C@H]1CCOC1=O [hal-11-Cl],,3.1 ± 0.1 µM,,,
O=C(CCCCCCCCNC(=O)CBr)CC(=O)N[C@H]1CCOC1=O [hal-11-Br],,26.8 ± 1.3 µM,,,
O=C(CCCCCCCCCNC(=O)CCl)CC(=O)N[C@H]1CCOC1=O [hal-12-Cl],,,,70 ± 27 µM,"IC50 (LasR [2]; antagonism of LasR activation by 50 nM 3-oxo-C12-HSL, E. coli reporter, read-out: IC50, E. coli-based LasR antagonist studies): 1.1 ± 0.1 µM"
"O=C(CCCCCCCCCS)CC(=O)NC1CCOC1=O (stereo not drawn) [thiol-11, 12-Mercapto-3-Oxo-N-(2-Oxotetrahydrofuran-3-yl)Dodecanamide]",,,,,inhibition of lasI expression in PAO1-luxCDABE (virulence) [3]: dose-dependent manner
"O=C(Cc1ccc(Br)cc1)NC1CCOC1=O (stereo not drawn) [4-Br-PHL, 2-(4-bromophenyl)-N-(2-oxo-tetrahydrofuran-3-yl)-acetamide, reference compound]",,4.8 ± 0.5 µM,~250 µM,~200 µM,soluble LasR-LBD obtained on expression in presence of compound (LasR-LBD): no soluble LasR was observed; inhibition of biofilm formation [1]: significantly inhibited; inhibition of pyocyanin production [4]: significantly inhibited; IC50 (LasR [7]): 3.9 µM

# From patent US9242951B2, “Covalent inhibition of bacterial quorum sensing” (priority 2009, dated 2016)
